In patent publication US10246426B2, “Triazole compounds as T-type calcium channel blockers” (IDORSIA PHARMACEUTICALS LTD, priority 2014, dated 2019):

Target: Cav3.2 (Homo sapiens, UniProt O95180)
Experiment: Calcium flux FLIPR assay, HEK293 cells recombinantly expressing Cav3.2
Assay type: cell-based
Details: Cav3.2-channel, Ca2+ entry stimulated by 10 mM CaCl2
Method in brief: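 Fluo-4-loaded HEK293 cells stably expressing Cav3.2, seeded overnight at 37 °C; compounds diluted in TEAC buffer (pH 7.2) and preincubated 3 min before Ca2+ entry triggered with CaCl2 at 10 mM final. Area under FLIPR fluorescence trace fitted sigmoidally; IC50 relative to vehicle signal.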

Cav3.2, sequence (O95180 whole entry, looked up): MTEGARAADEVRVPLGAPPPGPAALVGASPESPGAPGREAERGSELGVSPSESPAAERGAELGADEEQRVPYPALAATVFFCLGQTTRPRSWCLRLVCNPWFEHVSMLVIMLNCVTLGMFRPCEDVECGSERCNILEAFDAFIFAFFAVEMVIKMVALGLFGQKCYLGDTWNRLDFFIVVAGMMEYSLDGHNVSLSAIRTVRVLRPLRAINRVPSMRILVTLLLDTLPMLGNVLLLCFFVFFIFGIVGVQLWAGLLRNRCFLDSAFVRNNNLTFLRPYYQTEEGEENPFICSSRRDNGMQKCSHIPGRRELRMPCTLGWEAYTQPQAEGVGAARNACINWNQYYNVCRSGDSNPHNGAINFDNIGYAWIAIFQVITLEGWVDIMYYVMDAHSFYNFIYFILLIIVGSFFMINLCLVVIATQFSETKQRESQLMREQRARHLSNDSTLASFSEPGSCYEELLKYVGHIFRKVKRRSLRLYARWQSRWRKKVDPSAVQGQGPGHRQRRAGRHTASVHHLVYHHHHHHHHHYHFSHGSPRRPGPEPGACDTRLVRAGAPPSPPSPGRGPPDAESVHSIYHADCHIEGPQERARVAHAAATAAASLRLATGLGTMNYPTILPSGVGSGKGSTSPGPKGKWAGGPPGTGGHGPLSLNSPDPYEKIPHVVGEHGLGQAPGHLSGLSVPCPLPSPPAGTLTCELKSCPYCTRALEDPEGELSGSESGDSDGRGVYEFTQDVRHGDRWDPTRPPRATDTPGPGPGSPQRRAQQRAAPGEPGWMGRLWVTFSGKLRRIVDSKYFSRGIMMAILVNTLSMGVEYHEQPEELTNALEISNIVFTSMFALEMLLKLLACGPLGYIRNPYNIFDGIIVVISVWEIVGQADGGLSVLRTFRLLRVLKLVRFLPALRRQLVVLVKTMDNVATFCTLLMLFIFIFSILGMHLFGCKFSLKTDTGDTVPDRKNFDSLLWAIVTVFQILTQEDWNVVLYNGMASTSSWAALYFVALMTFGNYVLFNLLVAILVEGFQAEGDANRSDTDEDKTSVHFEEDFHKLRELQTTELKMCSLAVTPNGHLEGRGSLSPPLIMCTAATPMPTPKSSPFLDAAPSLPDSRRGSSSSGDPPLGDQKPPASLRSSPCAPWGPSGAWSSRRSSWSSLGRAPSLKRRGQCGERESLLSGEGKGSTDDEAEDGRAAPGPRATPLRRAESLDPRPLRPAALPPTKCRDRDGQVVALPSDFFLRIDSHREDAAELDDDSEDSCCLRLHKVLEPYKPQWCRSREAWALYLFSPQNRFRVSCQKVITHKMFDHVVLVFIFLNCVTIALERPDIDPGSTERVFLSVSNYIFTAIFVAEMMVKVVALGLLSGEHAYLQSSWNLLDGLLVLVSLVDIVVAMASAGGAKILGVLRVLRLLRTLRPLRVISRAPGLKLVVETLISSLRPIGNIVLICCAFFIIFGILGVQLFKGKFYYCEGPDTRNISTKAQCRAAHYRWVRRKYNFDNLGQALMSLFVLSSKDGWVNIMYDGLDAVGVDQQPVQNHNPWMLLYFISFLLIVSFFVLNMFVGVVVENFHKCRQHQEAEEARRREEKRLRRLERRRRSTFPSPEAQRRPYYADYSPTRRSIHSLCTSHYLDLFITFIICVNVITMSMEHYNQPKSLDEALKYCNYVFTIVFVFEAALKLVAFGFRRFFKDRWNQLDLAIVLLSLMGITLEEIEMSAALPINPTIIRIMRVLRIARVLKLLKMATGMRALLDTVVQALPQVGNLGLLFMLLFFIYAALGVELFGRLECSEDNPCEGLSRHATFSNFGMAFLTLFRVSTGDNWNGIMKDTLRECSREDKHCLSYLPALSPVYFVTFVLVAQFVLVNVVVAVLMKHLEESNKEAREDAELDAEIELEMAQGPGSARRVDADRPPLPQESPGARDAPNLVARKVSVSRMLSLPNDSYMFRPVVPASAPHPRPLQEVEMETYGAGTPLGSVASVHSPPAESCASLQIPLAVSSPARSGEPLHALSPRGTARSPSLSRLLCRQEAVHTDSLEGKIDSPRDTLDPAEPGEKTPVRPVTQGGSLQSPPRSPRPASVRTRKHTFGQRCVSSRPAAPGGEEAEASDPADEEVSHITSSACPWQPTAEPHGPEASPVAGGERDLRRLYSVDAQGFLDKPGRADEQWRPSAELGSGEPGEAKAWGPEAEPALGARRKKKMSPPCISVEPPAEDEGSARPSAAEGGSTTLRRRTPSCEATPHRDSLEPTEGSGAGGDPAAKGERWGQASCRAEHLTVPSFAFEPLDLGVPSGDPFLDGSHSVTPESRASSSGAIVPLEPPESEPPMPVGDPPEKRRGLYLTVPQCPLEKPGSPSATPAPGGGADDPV

Row | Structure (SMILES) | IC50 [nM]
1 | COc1cc(Cn2ncc(NC(=O)Cc3ccc4cnn(C)c4c3)n2)cc(F)c1F [Example 225, N-[2-(3,4-Difluoro-5-methoxy-benzyl)-2H-[1,2,3]triazol-4-yl]-2-(1-methyl-1H-indazol-6-yl)-acetamide] | 560
2 | Cc1ccc(Cn2ncc(NC(=O)Cc3ccc(C4(C(F)(F)F)CC4)cc3)n2)cc1C#N [Example 226, N-[2-(3-Cyano-4-methyl-benzyl)-2H-[1,2,3]triazol-4-yl]-2-[4-(1-trifluoromethyl-cyclopropyl)-phenyl]-acetamide] | 250
3 | COc1cc(Cn2ncc(NC(=O)Cc3ccc(C4(C(F)(F)F)CC4)cc3)n2)cc(F)c1F [Example 227, N-[2-(3,4-Difluoro-5-methoxy-benzyl)-2H-[1,2,3]triazol-4-yl]-2-[4-(1-trifluoromethyl-cyclopropyl)-phenyl]-acetamide] | 770
4 | COc1cc(Cn2ncc(NC(=O)Cc3ccc(C4(OC)COC4)cc3)n2)cc(F)c1F [Example 228, N-[2-(3,4-Difluoro-5-methoxy-benzyl)-2H-[1,2,3]triazol-4-yl]-2-[4-(3-methoxy-oxetan-3-yl)-phenyl]-acetamide] | 300
5 | COc1cc(Cn2ncc(NC(=O)Cc3ccc(OCC4(F)COC4)cc3)n2)cc(F)c1F [Example 229, N-[2-(3,4-Difluoro-5-methoxy-benzyl)-2H-[1,2,3]triazol-4-yl]-2-[4-(3-fluoro-oxetan-3-ylmethoxy)-phenyl]-acetamide] | 130
6 | COc1cc(Cn2ncc(NC(=O)Cc3ccc(OC4CC(F)(F)C4)cc3)n2)cc(F)c1F [Example 230, 2-[4-(3,3-Difluoro-cyclobutoxy)-phenyl]-N-[2-(3,4-difluoro-5-methoxy-benzyl)-2H-[1,2,3]triazol-4-yl]-acetamide] | 350
7 | N#Cc1ccc(Cn2ncc(NC(=O)Cc3ccc(C4(C#N)CC4)cc3)n2)cc1F [Example 231, 2-[4-(1-Cyano-cyclopropyl)-phenyl]-N-[2-(4-cyano-3-fluoro-benzyl)-2H-[1,2,3]triazol-4-yl]-acetamide] | 36
8 | N#Cc1ccc(Cn2ncc(NC(=O)Cc3ccc(S(F)(F)(F)(F)F)cc3)n2)cc1F [Example 232, N-(2-(4-cyano-3-fluorobenzyl)-2H-1,2,3-triazol-4-yl)-2-(4-(pentafluoro-λ6-sulfanyl)phenyl)acetamide] | 110
9 | Cn1ncc2cc(CC(=O)Nc3cnn(Cc4ccc(C#N)cc4)n3)ccc21 [Example 234, N-[2-(4-Cyano-benzyl)-2H-[1,2,3]triazol-4-yl]-2-(1-methyl-1H-indazol-5-yl)-acetamide] | 76
10 | Cc1cc(Cn2ncc(NC(=O)Cc3ccc(C4(F)COC4)cc3)n2)ccc1C#N [Example 235, N-[2-(4-Cyano-3-methyl-benzyl)-2H-[1,2,3]triazol-4-yl]-2-[4-(3-fluoro-oxetan-3-yl)-phenyl]-acetamide] | 92
11 | COc1ccc(Cn2ncc(NC(=O)Cc3ccc(N4CCCC4)nc3)n2)cc1C#N [Example 236, N-[2-(3-Cyano-4-methoxy-benzyl)-2H-[1,2,3]triazol-4-yl]-2-(6-pyrrolidin-1-yl-pyridin-3-yl)-acetamide] | 160
12 | COC1(c2ccc(CC(=O)Nc3cnn(Cc4ccc(C#N)cc4)n3)cc2)COC1 [Example 237, N-[2-(4-Cyano-benzyl)-2H-[1,2,3]triazol-4-yl]-2-[4-(3-methoxy-oxetan-3-yl)-phenyl]-acetamide] | 200
13 | N#Cc1ccc(Cn2ncc(NC(=O)Cc3ccc(OCC4CC(F)(F)C4)cc3)n2)cc1 [Example 238, N-[2-(4-Cyano-benzyl)-2H-[1,2,3]triazol-4-yl]-2-[4-(3,3-difluoro-cyclobutylmethoxy)-phenyl]-acetamide] | 24
14 | COc1cc(Cn2ncc(NC(=O)Cc3ccc(C(C)(C)C)cc3)n2)ccc1C#N [Example 239, 2-(4-tert-Butyl-phenyl)-N-[2-(4-cyano-3-methoxy-benzyl)-2H-[1,2,3]triazol-4-yl]-acetamide] | 210
15 | COc1cc(Cn2ncc(NC(=O)Cc3ccc4c(c3)c(C)cn4C)n2)cc(F)c1F [Example 240, N-[2-(3,4-Difluoro-5-methoxy-benzyl)-2H-[1,2,3]triazol-4-yl]-2-(1,3-dimethyl-1H-indol-5-yl)-acetamide] | 180
16 | Cc1cc(CC(=O)Nc2cnn(Cc3ccc(C#N)cn3)n2)ccc1OCC(F)(F)F [Example 242, N-[2-(5-Cyano-pyridin-2-ylmethyl)-2H-[1,2,3]triazol-4-yl]-2-[3-methyl-4-(2,2,2-trifluoro-ethoxy)-phenyl]-acetamide] | 54
17 | Cc1cn(C)c2ccc(CC(=O)Nc3cnn(Cc4ccc(C#N)cn4)n3)cc12 [Example 243, N-[2-(5-Cyano-pyridin-2-ylmethyl)-2H-[1,2,3]triazol-4-yl]-2-(1,3-dimethyl-1H-indol-5-yl)-acetamide] | 110
18 | CC(C)(C)c1ccc(CC(=O)Nc2cnn(Cc3ccc(C#N)cn3)n2)cc1 [Example 244, 2-(4-tert-Butyl-phenyl)-N-[2-(5-cyano-pyridin-2-ylmethyl)-2H-[1,2,3]triazol-4-yl]-acetamide] | 34
19 | N#Cc1ccc(Cn2ncc(NC(=O)Cc3ccc(C4(C(F)(F)F)CC4)cc3)n2)nc1 [Example 245, N-[2-(5-Cyano-pyridin-2-ylmethyl)-2H-[1,2,3]triazol-4-yl]-2-[4-(1-trifluoromethyl-cyclopropyl)-phenyl]-acetamide] | 190
20 | N#Cc1ccc(Cn2ncc(NC(=O)Cc3ccc(OC4CC(F)(F)C4)cc3)n2)nc1 [Example 246, N-[2-(5-Cyano-pyridin-2-ylmethyl)-2H-[1,2,3]triazol-4-yl]-2-[4-(3,3-difluoro-cyclobutoxy)-phenyl]-acetamide] | 680
21 | N#Cc1ccc(Cn2ncc(NC(=O)Cc3cnc(N4CCCC4)c(F)c3)n2)nc1 [Example 247, N-[2-(5-Cyano-pyridin-2-ylmethyl)-2H-[1,2,3]triazol-4-yl]-2-(5-fluoro-6-pyrrolidin-1-yl-pyridin-3-yl)-acetamide] | 690
22 | CC(C)(c1ccc(CC(=O)Nc2cnn(Cc3ccc(C#N)c(F)c3)n2)cc1)C(F)(F)F [Example 249, N-[2-(4-Cyano-3-fluoro-benzyl)-2H-[1,2,3]triazol-4-yl]-2-[4-(2,2,2-trifluoro-1,1-dimethyl-ethyl)-phenyl]-acetamide] | 91
